Literature values in US20200009266A1, “IN VIVO GENE THERAPY FOR IMMUNE DEFICIENCIES” (priority 2017, published 2020).

Experiments:
circulating CD34+ cells = details: AMD3100 alone, adult dogs
[1] = system: peripheral blood lymphocytes; details: rhesus macaques

c1cc(CN2CCCNCCNCCCNCC2)ccc1CN1CCCNCCNCCCNCC1 [AMD3100]
time of peak mobilization post treatment (circulating CD34+ cells): 8 to 10 h | tolerability of treatment (circulating CD34+ cells): well tolerated | lymphocyte numbers in peripheral blood [1]: increased numbers of B and T lymphocytes
